Data as given in paper PMC10916382, “Repurposing screen identifies novel candidates for broad-spectrum coronavirus antivirals and druggable host targets” (Antimicrobial Agents and Chemotherapy, 2024).
Where a name gives a salt, the structure may show the parent alone. Read-outs that look alike come from different tables or passages of the source.

How the values were obtained:
Huh-7.5/F-Luc cells = settings: for % cell viability at max. dose [5 µM]: at max. dose 5 µM
HCoV-229E = assay: microbe, parasite or virus in culture; format: cell-based, Homo sapiens sapiens
in vitro = settings: for viability: Anti-SARS-CoV-2 screening on Calu-3 cells: viability [% of control], Calu-3 cells
[1] = Huh-7.5 cells, dose series, maximum tested dose 5 µM
[2] = Calu-3 cells, immunofluorescence imaging
[3] = HCoV 229E infection, dose series, max. dose 5 µM, read-out: IC50

SMILES | CC50 (µM) (Huh-7.5/F-Luc cells; [1]) | Anti-SARS-CoV-2 screening on Calu-3 cells: intracellular SARS-CoV-2 infection measured via immunofluorescence imaging [% of control] (SARS-CoV-2; [2]) | IC50 (HCoV-229E; Human coronavirus 229E, Huh7.5) [nM] | viability at 48 h, 5 µM (in vitro) [%] | viability (in vitro) [%] | % cell viability at max. dose [5 µM] (Huh-7.5/F-Luc cells) [%] | Anti-SARS-CoV-2 screening on Calu-3 cells: viability [% of control] (SARS-CoV-2; Calu-3 cells) | further results
C1CCC(C(CC2CCCCN2)C2CCCCC2)CC1 (centres unmarked) [PERHEXILINE] | greater than maximum tested dose | 116.50 % of control | 670 | 97 | – | – | – | –
Cc1nc2c(N3CCNCC3)cccc2n1S(=O)(=O)c1ccccc1 [PF-5212377] | greater than maximum tested dose | 99.72 % of control | 1150 | – | 104 | – | – | –
CCOc1cc2c(c(F)c1OCC)C(=N)N(CC(=O)c1cc(N3CCOCC3)c(OC)c(C(C)(C)C)c1)C2 [atopaxar] | greater than maximum tested dose | 107.54 % of control | 490 | – | 81.4 | – | – | –
CN(C)CCOC1=Cc2ccccc2Sc2ccc(Cl)cc21 [zotepine] | greater than maximum tested dose | 107.66 % of control | 1040 | 98.1 | – | – | – | –
CN(C)c1ccc(C(=C2C=CC(=[N+](C)C)C=C2)c2ccc(N(C)C)cc2)cc1 [Gentian violet, reference compound] | greater than maximum tested dose | 6.34 % of control | 120 | 101 | – | – | – | total cell numbers (SARS-CoV-2; Calu-3 cells, 5 µM, DAPI, relative to DMSO): ≥ 75%; reduction of infected cell numbers (SARS-CoV-2; Calu-3 cells, 5 µM, N protein immunofluorescence, relative to DMSO): more than 50%
O=C1NCCN1CCN1CCC(c2cn(-c3ccc(F)cc3)c3ccc(Cl)cc23)CC1 [sertindole] | greater than maximum tested dose | 107.90 % of control | 960 | 106 | – | – | – | –
COc1ccc(C(C)C)cc1CNC1C2CCN(CC2)C1C(c1ccccc1)c1ccccc1 (centres unmarked) [RFM-011-108-0] | greater than maximum tested dose | 86.21 % of control | 850 | 96.4 | – | – | – | –
CC1=C(c2ccc(O)cc2)[C@H](c2ccc(OCCN3CCCCC3)cc2)Oc2cc(O)ccc21 [ACOLBIFENE] | greater than maximum tested dose | 111.23 % of control | 990 | 88 | – | – | – | –
CN1CCC(CNc2ccc3ncc(-c4cccc(OC(F)(F)F)c4)n3n2)CC1 [SGI-1776] | greater than maximum tested dose | 100.18 % of control | 560 | – | 94.5 | – | – | –
CC(C)(C)c1cnc(CSc2cnc(NC(=O)C3CCNCC3)s2)o1 [SNS-032] | greater than maximum tested dose | 132.10 % of control | 210 | – | 39.8 | – | – | –
COc1cccc2c1C(=O)c1c(O)c3c(c(O)c1C2=O)C[C@@](O)(C(=O)CO)C[C@@H]3O[C@H]1C[C@H](N)[C@H](O[C@@H]2CCCCO2)[C@H](C)O1 [pirarubicin] | greater than maximum tested dose | 112.83 % of control | 890 | – | 56.9 | – | – | –
CC(C)(Cc1ccc2ccccc2c1)NC[C@@H](O)COc1cccc(Cl)c1C#N [SB 262470] | greater than maximum tested dose | 110.66 % of control | 960 | – | 106 | – | – | –
CNCc1ccc(OC)c([C@]2(N3CCC[C@H]3c3ncco3)C(=O)N(S(=O)(=O)c3ccc(OC)cc3)c3ccc(Cl)cc32)c1 [RFM-011-200-5] | greater than maximum tested dose | 106.10 % of control | 700 | – | 117 | – | – | –
CC/C(=C(\c1ccccc1)c1ccc(OCCN(C)C)cc1)c1ccccc1 [Tamoxifen citrate] | – | – | – | 102 | – | – | – | CC50 (µM) (Huh-7.5/F-Luc cells): greater than maximum tested dose; Anti-SARS-CoV-2 screening on Calu-3 cells: intracellular SARS-CoV-2 infection measured via immunofluorescence imaging [% of control] (SARS-CoV-2): 106.52 % of control
CCN(CC)CCN(Cc1ccc(-c2ccc(C(F)(F)F)cc2)cc1)C(=O)Cn1c(SCc2ccc(F)cc2)nc(=O)c2c1CCC2 [Darapladib] | greater than maximum tested dose | 107.62 % of control | 300 | 103 | – | – | – | –
CNCc1ccc(C)c(NC(=O)c2ccc(Nc3nc(-c4ccccc4)c4ccccc4n3)cc2)c1 [XL-139] | greater than maximum tested dose | 109.44 % of control | 620 | – | 107 | – | – | –
Cc1ccc(Sc2ccccc2N2CCNCC2)c(C)c1 [Vortioxetine hydrobromide] | greater than maximum tested dose | 101.64 % of control | 990 | – | 82.8 | – | – | –
COc1cc(C(C)=O)ccc1OCCCN1CCC(C(O)(c2ccc(F)cc2)c2ccc(F)cc2)CC1 [AHR-5333] | greater than maximum tested dose | 98.57 % of control | – | – | – | 162.61 | 103.33 % of control | IC50 (HCoV-229E; [3]): 1000 nM
CN[C@H]1CC[C@@H](c2ccc(Cl)c(Cl)c2)c2ccccc21 [sertraline hydrochloride] | – | – | – | 101 | – | – | – | CC50 (µM) (Huh-7.5/F-Luc cells): greater than maximum tested dose; Anti-SARS-CoV-2 screening on Calu-3 cells: intracellular SARS-CoV-2 infection measured via immunofluorescence imaging [% of control] (SARS-CoV-2): 122.16 % of control
C1=C(c2ccc(CN3CCCCC3)cc2)N2CCN=C2c2ccccc21 [SDZ-62-434] | greater than maximum tested dose | 96.11 % of control | – | – | – | 157.85 | 104.96 % of control | IC50 (HCoV-229E; [3]): 760 nM
CN(C)CCCN1c2ccccc2Sc2ccc(Cl)cc21 [Chlorpromazine69-09-0] | greater than maximum tested dose | 120.36 % of control | – | – | – | 144.29 | 118.10 % of control | IC50 (HCoV-229E; [3]): 770 nM
OCCNCCOc1ccc(/C(=C(\c2ccccc2)C(F)(F)F)c2ccccc2)cc1 [PANOMIFENE] | greater than maximum tested dose | 95.32 % of control | – | – | – | 141.70 | 98.59 % of control | IC50 (HCoV-229E; read-out: IC50): 890 nM
Cc1cccc(/C=N/Nc2cc(N3CCOCC3)nc(OCCc3ccccn3)n2)c1 [Target 16/Apilimod mesilate] | greater than maximum tested dose | 135.01 % of control | – | – | – | 124.74 | 101.93 % of control | IC50 (HCoV-229E; [3]): 200 nM
Cc1ccc(Sc2ccccc2C2CCNCC2)cc1 [LU-AA24530] | greater than maximum tested dose | 100.77 % of control | – | – | – | 150.91 | 106.74 % of control | IC50 (HCoV-229E; [3]): 680 nM
C=CCc1c(OCCCNCc2ccccc2)ccc2c1[nH]c1ccccc12 [YM-75440] | greater than maximum tested dose | 109.36 % of control | – | – | – | 65.35 | 100.37 % of control | IC50 (HCoV-229E; [3]): 730 nM
CN1C2CCC1CC(OC(c1ccccc1)c1ccc(Cl)cc1)C2.Cl (centres unmarked) | greater than maximum tested dose | 110.06 % of control | – | – | – | 144.12 | 110.96 % of control | IC50 (HCoV-229E; read-out: IC50): 690 nM
COC(=O)C1=C(C)NC(C)=C(C(=O)OCCCCNC[C@H](O)COc2ccccc2)C1c1cccc([N+](=O)[O-])c1 (some centres unmarked) [YM 430] | greater than maximum tested dose | 99.21 % of control | – | – | – | 137.51 | 101.27 % of control | IC50 (HCoV-229E; [3]): 820 nM
Oc1ccc(CCN2CCC(Nc3nc4ccccc4n3Cc3ccc(F)cc3)CC2)cc1 [DESMETHYLASTEMIZOLE] | greater than maximum tested dose | 109.56 % of control | – | – | – | 160.37 | 121.52 % of control | IC50 (HCoV-229E; read-out: IC50): 1070 nM
CCN(CC)CCOc1ccc(/C(=C(/Cl)c2ccccc2)c2ccccc2)cc1 [enclomiphene citrate] | – | – | – | 102 | – | – | – | CC50 (µM) (Huh-7.5/F-Luc cells): greater than maximum tested dose; Anti-SARS-CoV-2 screening on Calu-3 cells: intracellular SARS-CoV-2 infection measured via immunofluorescence imaging [% of control] (SARS-CoV-2): 91.35 % of control
